These results are taken from US8372854B2, “Pyrrolo[2,3-D]pyrimidine compounds” (Pfizer Inc., priority 2009, dated 2013).

Common to all, as to assay type: biochemical
The target in one test is T1, JAK3 (Homo sapiens, UniProt P52333).
T1 construct: purchased Invitrogen Corporation, Madison, Wis; PV3855
T1 sequence (P52333 1-1124): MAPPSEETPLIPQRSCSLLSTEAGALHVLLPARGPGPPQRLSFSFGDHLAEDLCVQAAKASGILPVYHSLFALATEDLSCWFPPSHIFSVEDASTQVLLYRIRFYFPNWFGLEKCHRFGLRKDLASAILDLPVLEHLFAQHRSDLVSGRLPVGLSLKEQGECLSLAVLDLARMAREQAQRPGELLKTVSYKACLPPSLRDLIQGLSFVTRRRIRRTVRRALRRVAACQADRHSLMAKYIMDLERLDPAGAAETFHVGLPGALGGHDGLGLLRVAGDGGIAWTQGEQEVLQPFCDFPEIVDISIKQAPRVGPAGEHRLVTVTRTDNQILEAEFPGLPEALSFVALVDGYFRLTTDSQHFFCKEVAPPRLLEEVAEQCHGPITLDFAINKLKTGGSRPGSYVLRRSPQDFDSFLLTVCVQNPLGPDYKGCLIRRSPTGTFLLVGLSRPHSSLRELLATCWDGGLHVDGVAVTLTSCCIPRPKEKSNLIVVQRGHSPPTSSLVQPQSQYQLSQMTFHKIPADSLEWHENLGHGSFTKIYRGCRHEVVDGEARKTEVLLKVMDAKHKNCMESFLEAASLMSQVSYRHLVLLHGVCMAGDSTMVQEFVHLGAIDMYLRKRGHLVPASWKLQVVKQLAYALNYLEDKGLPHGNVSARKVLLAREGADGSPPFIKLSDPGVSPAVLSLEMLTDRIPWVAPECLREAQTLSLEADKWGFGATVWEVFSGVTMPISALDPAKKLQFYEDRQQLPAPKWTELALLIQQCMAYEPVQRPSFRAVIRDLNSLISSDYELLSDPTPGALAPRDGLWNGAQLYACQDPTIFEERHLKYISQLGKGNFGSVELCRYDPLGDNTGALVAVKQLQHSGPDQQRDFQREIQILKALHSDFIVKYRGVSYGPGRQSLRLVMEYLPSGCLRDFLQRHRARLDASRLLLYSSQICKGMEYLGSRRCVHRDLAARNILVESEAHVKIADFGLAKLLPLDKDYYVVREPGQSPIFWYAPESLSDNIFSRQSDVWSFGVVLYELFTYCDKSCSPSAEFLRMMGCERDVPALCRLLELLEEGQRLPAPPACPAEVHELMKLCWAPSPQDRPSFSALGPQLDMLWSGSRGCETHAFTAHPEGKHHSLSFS
The test is described as follows: JAK enzymatic assay (peptide mobility shift), JAK3. Conditions: recombinant JAK3 1 nM, ATP 4 μM, 1 μM JAKtide peptide, 90 minutes. The text has this:
Recombinant JAK1 (Catalog Number PV4775), JAK2 (Catalog Number PV4210) and JAK3 (Catalog Number PV3855) were purchased from (Invitrogen Corporation, Madison, Wis.). Tyk2 (His-Tyk2 (888-1182, C936S, C1142S)) used in this study was expressed and purified at Pfizer Laboratories. Adenosine 5′-triphosphate (ATP) was obtained from (Sigma Chemical Company, St. Louis, Mo.). […] Coating Reagent 3 was purchased from (Caliper Life Sciences, Hopkinton, Mass.).
(§1) A peptide mobility shift assay was used to quantify the phosphorylation of the JAKtide (JAK2 and JAK3) or the IRS-1 peptide ([…] and Tyk2). Reactions were carried out in a 384-well plate (Matrical MP-101) in a 10 μL total volume. Reaction mixtures contained 20 mM HEPES, pH 7.4, 10 mM magnesium chloride, 0.01% bovine serum albumin (BSA), 0.0005% Tween-20, ATP (4 μM for JAK2 and JAK3, 40 μM for JAK1 and 7 μM for Tyk2)), 2% DMSO and 1 μM peptide substrate (JAKtide for JAK2 and JAK3 and IRS-1 peptide for JAK1 and Tyk2). Compounds were diluted serially in 100% dimethyl sulfoxide and tested in an 11 point dose response in duplicate or quadruplicate (200 nl of compound/DMSO was added per 10 μL reaction). The reactions were initiated by the addition of enzyme to the final concentration of 2 nM JAK2, 1 nM JAK3, 12 nM Tyk2 or 20 nM JAK1. The assay was run for 240 minutes for JAK1, 150 minutes for JAK2, 90 minutes for JAK3 and 70 minutes for Tyk2. The assays were stopped at the specified times with 20 uL of 140 mM HEPES, 22.5 mM EDTA and 0.15% Coating Reagent 3. The plates were placed on a LabChip 3000 (LC3000) instrument from (Caliper Life Sciences) to measure the formation of phosphorylated peptide. Data was analyzed using Hits Well Analyzer Software from (Caliper Life Sciences) to obtain the amount of product formed.
(§2) Data was then imported into an internal application where each data point is expressed as % inhibition based on uninhibited and no enzyme controls. Dose-response data is then fit using a 4 parameter logistic equation (Equation 1) to determine an IC50.
(§3) Where max is the fitted uninhibited value, min is the fitted complete inhibition value, and s is the slope factor.

The next test deals with T2, JAK2 (Homo sapiens, UniProt O60674).
T2 construct: purchased Invitrogen Corporation, Madison, Wis; PV4210
The test is described as follows: JAK enzymatic assay (peptide mobility shift), JAK2. The note with it: recombinant JAK2 2 nM, ATP 4 μM, 1 μM JAKtide peptide, 150 minutes.
Description: (§4) Recombinant JAK1 (Catalog Number PV4775), JAK2 (Catalog Number PV4210) and JAK3 (Catalog Number PV3855) were purchased from (Invitrogen Corporation, Madison, Wis.). Tyk2 (His-Tyk2 (888-1182, C936S, C1142S)) used in this study was expressed and purified at Pfizer Laboratories. Adenosine 5′-triphosphate (ATP) was obtained from (Sigma Chemical Company, St. Louis, Mo.). The JAKtide peptide (peptide sequence, FITC-[…]) used for the JAK2 and JAK3 assays and the IRS-1 peptide (peptide sequence, 5-FAM-[…]) used for the JAK1 and Tyk2 assays were purchased from (American Peptide Company, Sunnyvale, Calif.). Coating Reagent 3 was purchased from (Caliper Life Sciences, Hopkinton, Mass.).
as §1, §2, §3

The target of a further test is T3, JAK1 (Homo sapiens, UniProt P23458).
T3 construct: purchased Invitrogen Corporation, Madison, Wis; PV4775
Briefly: JAK enzymatic assay (peptide mobility shift), JAK1. Conditions: recombinant JAK1 20 nM, ATP 40 μM, 1 μM IRS-1 peptide, 240 minutes.
Description: as §4, §1, §2, §3

T2 sequence (O60674 whole entry): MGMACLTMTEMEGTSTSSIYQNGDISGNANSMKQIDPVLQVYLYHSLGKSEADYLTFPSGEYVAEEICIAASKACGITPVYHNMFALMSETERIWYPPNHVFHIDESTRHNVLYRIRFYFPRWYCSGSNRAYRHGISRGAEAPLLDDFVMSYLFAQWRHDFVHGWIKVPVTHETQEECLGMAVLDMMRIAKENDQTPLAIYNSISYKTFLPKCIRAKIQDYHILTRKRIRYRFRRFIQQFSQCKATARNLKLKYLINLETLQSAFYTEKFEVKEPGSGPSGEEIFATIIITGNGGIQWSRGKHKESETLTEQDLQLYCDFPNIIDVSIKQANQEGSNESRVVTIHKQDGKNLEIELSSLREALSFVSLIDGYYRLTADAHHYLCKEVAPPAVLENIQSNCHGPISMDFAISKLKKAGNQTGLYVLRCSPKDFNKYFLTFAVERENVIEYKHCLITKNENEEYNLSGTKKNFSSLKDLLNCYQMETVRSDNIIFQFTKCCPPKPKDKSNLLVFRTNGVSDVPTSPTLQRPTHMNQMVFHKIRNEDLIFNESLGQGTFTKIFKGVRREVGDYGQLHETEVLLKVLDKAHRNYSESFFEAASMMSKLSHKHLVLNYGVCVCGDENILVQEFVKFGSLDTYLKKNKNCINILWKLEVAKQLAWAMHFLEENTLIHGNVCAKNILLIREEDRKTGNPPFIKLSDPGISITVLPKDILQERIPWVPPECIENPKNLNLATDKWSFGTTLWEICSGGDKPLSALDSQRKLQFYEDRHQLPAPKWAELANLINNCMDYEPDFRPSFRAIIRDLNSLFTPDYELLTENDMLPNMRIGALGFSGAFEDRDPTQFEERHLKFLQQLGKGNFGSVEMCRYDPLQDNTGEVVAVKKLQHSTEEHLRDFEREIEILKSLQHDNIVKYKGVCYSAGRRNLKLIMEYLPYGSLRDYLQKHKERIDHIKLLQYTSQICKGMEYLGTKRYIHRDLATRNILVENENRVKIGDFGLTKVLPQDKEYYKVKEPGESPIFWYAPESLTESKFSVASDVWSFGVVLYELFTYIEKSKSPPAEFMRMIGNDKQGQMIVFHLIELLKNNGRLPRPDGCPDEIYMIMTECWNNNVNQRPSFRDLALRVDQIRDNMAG
T3 sequence (P23458 whole entry): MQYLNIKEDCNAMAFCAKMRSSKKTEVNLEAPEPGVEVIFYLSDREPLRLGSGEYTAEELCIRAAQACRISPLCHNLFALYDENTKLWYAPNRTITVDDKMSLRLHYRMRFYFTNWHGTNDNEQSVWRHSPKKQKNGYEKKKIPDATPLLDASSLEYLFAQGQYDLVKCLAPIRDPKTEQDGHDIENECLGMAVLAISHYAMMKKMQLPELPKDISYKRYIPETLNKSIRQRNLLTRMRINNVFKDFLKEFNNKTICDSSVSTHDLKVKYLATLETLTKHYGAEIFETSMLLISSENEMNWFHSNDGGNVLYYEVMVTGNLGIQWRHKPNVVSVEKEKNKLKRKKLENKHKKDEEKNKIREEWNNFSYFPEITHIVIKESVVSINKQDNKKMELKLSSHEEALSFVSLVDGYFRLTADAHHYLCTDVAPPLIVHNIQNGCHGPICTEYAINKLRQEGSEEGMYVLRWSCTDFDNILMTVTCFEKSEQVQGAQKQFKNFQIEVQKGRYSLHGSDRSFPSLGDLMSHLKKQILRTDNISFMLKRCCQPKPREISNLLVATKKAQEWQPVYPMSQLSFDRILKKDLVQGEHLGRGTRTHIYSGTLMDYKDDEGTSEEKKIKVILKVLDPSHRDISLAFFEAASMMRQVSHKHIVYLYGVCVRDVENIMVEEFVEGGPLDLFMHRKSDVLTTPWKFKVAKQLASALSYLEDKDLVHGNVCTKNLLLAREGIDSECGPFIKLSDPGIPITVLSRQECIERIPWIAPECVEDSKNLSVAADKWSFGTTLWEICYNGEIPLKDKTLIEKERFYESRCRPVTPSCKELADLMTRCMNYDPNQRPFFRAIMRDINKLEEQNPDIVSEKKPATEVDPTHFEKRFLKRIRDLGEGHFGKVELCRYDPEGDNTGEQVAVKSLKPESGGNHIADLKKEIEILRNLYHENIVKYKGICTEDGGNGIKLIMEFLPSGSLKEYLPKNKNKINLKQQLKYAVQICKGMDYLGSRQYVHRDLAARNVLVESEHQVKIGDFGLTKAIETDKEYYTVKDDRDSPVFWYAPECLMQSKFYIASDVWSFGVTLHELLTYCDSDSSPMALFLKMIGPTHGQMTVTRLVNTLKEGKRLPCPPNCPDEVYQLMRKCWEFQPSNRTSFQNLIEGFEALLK

One may read the IC50 as the concentration that inhibits the measured activity by half. In the case of `Cc1ccc(CCNS(=O)(=O)C[C@H]2CC[C@H](N(C)c3ncnc4[nH]ccc34)CC2)cc1` [Example 7, N-[2-(4-methylphenyl)-ethyl]-1-{trans-4-[methyl-(7H-pyrrolo[2,3-d]pyrimidin-4-yl)amino]cyclohexyl}-methanesulfonamide], the IC50 on JAK3 came out at 137 nM; on JAK2 it was 11.3 nM; on JAK1, 4.44 nM.
As for `CN(c1ncnc2[nH]ccc12)[C@H]1CC[C@H](CS(=O)(=O)Nc2ccn[nH]2)CC1` [Example 22, 1-{trans-4-[methyl(7H-pyrrolo[2,3-d]pyrimidin-4-yl)amino]cyclohexyl}-N-1H-pyrazol-5-yl-methanesulfonamide], the IC50 came out at 241 nM on JAK3, 32.4 nM on JAK2 and 15.2 nM at JAK1.
As to `COc1ccccc1CCNS(=O)(=O)C[C@H]1CC[C@H](N(C)c2ncnc3[nH]ccc23)CC1` [Example 5, N-[2-(2-methoxyphenyl)-ethyl]-1-{trans-4-[methyl-(7H-pyrrolo[2,3-d]pyrimidin-4-yl)amino]cyclohexyl}-methanesulfonamide], the IC50 was found to be 188 nM at JAK3, 17 nM at JAK2 and 3.78 nM at JAK1.
For `CN(c1ncnc2[nH]ccc12)[C@H]1CC[C@H](CS(=O)(=O)NCCc2ccccc2F)CC1` [Example 14, N-[2-(2-fluorophenyl)ethyl]-1-{trans-4-[methyl(7H-pyrrolo[2,3-d]pyrimidin-4-yl)amino]cyclohexyl}methanesulfonamide] the same measures were 148 nM, 20.5 nM and 4.65 nM.
Taken in the same sequence, the figures for `CN(Cc1cnccn1)S(=O)(=O)C[C@H]1CC[C@H](N(C)c2ncnc3[nH]ccc23)CC1` [Example 43, N-methyl-1-{trans-4-[methyl(7H-pyrrolo[2,3-d]-pyrimidin-4-yl)amino]-cyclohexyl}-N-(pyrazin-2-ylmethyl)-methanesulfonamide] were 517 nM, 53.2 nM and 14.9 nM.
As for `CN(c1ncnc2[nH]ccc12)[C@H]1CC[C@H](CS(=O)(=O)NCc2ccccc2)CC1` [Example 16, N-benzyl-1-{trans-4-[methyl-(7H-pyrrolo[2,3-d]pyrimidin-4-yl)amino]-cyclohexyl}-methanesulfonamide], the IC50 on JAK3 stood at 182 nM; at JAK2, 29.4 nM; at JAK1, 13.5 nM.
Take `CN(c1ncnc2[nH]ccc12)[C@H]1CC[C@H](CS(=O)(=O)NCCc2cccc(F)c2)CC1` [Example 33, N-[2-(3-fluorophenyl)ethyl]-1-{trans-4-[methyl(7H-pyrrolo[2,3-d]pyrimidin-4-yl)amino]cyclohexyl}-methanesulfonamide]: the results for the IC50 at JAK3, at JAK2 and on JAK1 were 192 nM, 24.2 nM and 4.95 nM, respectively.
Taken in the same sequence, the figures for `COc1ccccc1CCCNS(=O)(=O)C[C@H]1CC[C@H](N(C)c2ncnc3[nH]ccc23)CC1` [Example 40, N-[3-(2-methoxyphenyl)-propyl]-1-{trans-4-[methyl(7H-pyrrolo[2,3-d]-pyrimidin-4-yl)amino]-cyclohexyl}-methanesulfonamide] were 208 nM, 29.8 nM and 10.7 nM.
Take `CN(c1ncnc2[nH]ccc12)[C@H]1CC[C@H](CS(=O)(=O)NCC(C)(F)c2cccc(F)c2)CC1` (stereo partly drawn) [Example 9, N-[2-fluoro-2-(3-fluoro-phenyl)propyl]-1-{trans-4-[methyl(7H-pyrrolo[2,3-d]-pyrimidin-4-yl)amino]-cyclohexyl}-methanesulfonamide]: the IC50 came out at 531 nM at JAK3, 39.7 nM at JAK2 and 10.5 nM on JAK1.
Take `Cc1cc(NS(=O)(=O)C[C@H]2CC[C@H](N(C)c3ncnc4[nH]ccc34)CC2)n[nH]1` [Example 23, N-(5-methyl-1H-pyrazol-3-yl)-1-{trans-4-[methyl(7H-pyrrolo[2,3-d]pyrimidin-4-yl)amino]cyclohexyl}-methanesulfonamide]: the IC50 came out at 342 nM on JAK3, 30.5 nM at JAK2 and 18.6 nM at JAK1.
For `CN(c1ncnc2[nH]ccc12)[C@H]1CC[C@H](CS(=O)(=O)Nc2ccc(C#N)cc2)CC1` [Example 21, N-(4-cyanophenyl)-1-{trans-4-[methyl(7H-pyrrolo[2,3-d]pyrimidin-4-yl)amino]cyclohexyl}-methanesulfonamide] the same measures were 140 nM, 52.4 nM and 10.3 nM.
Taken in the same sequence, the figures for `CN(c1ncnc2[nH]ccc12)[C@H]1CC[C@H](CS(=O)(=O)NC2CC(NC(=O)OC(C)(C)C)C2)CC1` (stereo partly drawn) [Example 41, tert-butyl (3-{[({trans-4-[methyl(7H-pyrrolo[2,3-d]-pyrimidin-4-yl)amino]-cyclohexyl}methyl)sulfonyl]amino}cyclobutyl)-carbamate] were 292 nM, 123 nM and 11.6 nM.
Turning to `CN(C)S(=O)(=O)C[C@H]1CC[C@H](N(C)c2ncnc3[nH]ccc23)CC1` [Example 57, N,N-dimethyl((1r,4r)-4-(methyl(7H-pyrrolo[2,3-d]pyrimidin-4-yl)amino)-cyclohexyl)-methanesulfonamide], the IC50 at JAK3 was 174 nM; at JAK2, 27.5 nM; at JAK1 it was 7.33 nM.
As to `CN(c1ncnc2[nH]ccc12)[C@H]1CC[C@@H](CS(=O)(=O)NCCc2ccccc2)CC1` [Example 53, 1-{cis-4-[methyl(7H-pyrrolo[2,3-d]pyrimidin-4-yl)amino]cyclohexyl}-N-(2-phenylethyl)-methanesulfonamide], the IC50 at JAK3 turned out to be 119 nM; on JAK2, 34.7 nM; on JAK1, 11.5 nM.
For `CN(c1ncnc2[nH]ccc12)[C@H]1CC[C@H](CS(=O)(=O)Nc2ccc3[nH]ccc3c2)CC1` [Example 24, N-1H-indol-5-yl-1-{trans-4-[methyl(7H-pyrrolo[2,3-d]-pyrimidin-4-yl)amino]-cyclohexyl}-methanesulfonamide] the same measures were 55.8 nM, 4.55 nM and 1.65 nM.
